In this test the test system is CD2F1 mice, L1210 leukemia ip, survival T/C. In words: NCI In Vivo Anticancer Drug Screen. Data for tumor model L1210 Leukemia (intraperitoneal) in CD2F1 (CDF1) mice. The note with it: higher = longer survival. Put shortly: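 Activity against a transplanted murine tumor was judged by comparing the compound group with a vehicle group. The outcome in the treated animals was divided by that in the controls.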

Where [1] appears, read: endpoint: mean survival time, dose: 12.5 mg/kg/injection, schedule: Q01DX009 (ip), vehicle: saline with Tween-80.
The mark [2] stands for this setting: endpoint: mean survival time, dose: 12.5 mg/kg/injection, schedule: Q04DX003 (ip), vehicle: saline with Tween-80.
Where [3] appears, read: endpoint: mean survival time, dose: 25.0 mg/kg/injection, schedule: Q01DX009 (ip), vehicle: saline with Tween-80.
Where [4] appears, read: endpoint: mean survival time, dose: 25.0 mg/kg/injection, schedule: Q04DX003 (ip), vehicle: saline with Tween-80.
Where [5] appears, read: endpoint: mean survival time, dose: 50.0 mg/kg/injection, schedule: Q04DX003 (ip), vehicle: saline with Tween-80.
Setting [6] is: endpoint: mean survival time, dose: 100.0 mg/kg/injection, schedule: Q01DX009 (ip), vehicle: saline with Tween-80.
Where [7] appears, read: endpoint: mean survival time, dose: 200.0 mg/kg/injection, schedule: Q01DX009 (ip), vehicle: saline with Tween-80.
Where [8] appears, read: endpoint: mean survival time, dose: 100.0 mg/kg/injection, schedule: Q04DX003 (ip), vehicle: saline.
The mark [9] stands for this setting: endpoint: mean survival time, dose: 200.0 mg/kg/injection, schedule: Q04DX003 (ip), vehicle: saline.
[10] abbreviates: endpoint: mean survival time, dose: 400.0 mg/kg/injection, schedule: Q04DX003 (ip), vehicle: saline.
[11] abbreviates: endpoint: mean survival time, dose: 100.0 mg/kg/injection, schedule: Q01DX009 (ip), vehicle: saline.
Setting [12] is: endpoint: mean survival time, dose: 50.0 mg/kg/injection, schedule: Q01DX009 (ip), vehicle: saline with Tween-80.
Setting [13] is: endpoint: mean survival time, dose: 100.0 mg/kg/injection, schedule: Q04DX003 (ip), vehicle: saline with Tween-80.
Setting [14] is: endpoint: mean survival time, dose: 200.0 mg/kg/injection, schedule: Q04DX003 (ip), vehicle: saline with Tween-80.
[15] abbreviates: endpoint: mean survival time, dose: 400.0 mg/kg/injection, schedule: Q04DX003 (ip), vehicle: saline with Tween-80.

Several values for one entry are separate records, joined by “and”; a condition that tells them apart may be missing. Identical values can stand only once. Inconclusive results and toxic doses are left out.

In the case of `CCOC(OCC)c1nc(N)nc(N)c1-c1ccc(Cl)c(Cl)c1`, the T/C reads like this: (endpoint: mean survival time, dose: 134.0 mg/kg/injection, schedule: Q01DX009 (ip), vehicle: other) 123 % of control; (endpoint: mean survival time, dose: 200.0 mg/kg/injection, schedule: Q01DX009 (ip), vehicle: other) 111 % of control; (endpoint: mean survival time, dose: 300.0 mg/kg/injection, schedule: Q01DX009 (ip), vehicle: other) 88 % of control.

As for `CSC(=S)N/N=C/c1ccccc1O`, the T/C runs as follows: under setting [1], 95 % of control; under setting [2], 100 % of control; under setting [3], 87 % of control; under setting [4], 97 % of control; under setting [5], 95 % of control.

Turning to `Cc1cc(CC(Cl)(C(F)(F)F)C(F)(F)F)cc(CC(Cl)(C(F)(F)F)C(F)(F)F)n1`, the T/C by setting is: under setting [2], 97 % of control; under setting [4], 97 % of control; under setting [5], 97 % of control.

`O=C(CNC(=O)Nc1cccc(C(F)(F)F)c1)NNC(=O)Nc1ccc(Cl)c([N+](=O)[O-])c1`: the T/C under setting [6] is 89 % of control and the T/C under setting [7] was 86 % of control.

For the compound `CCOc1ccc(C(=O)OC(CN(CC)CC)c2ccccc2)cc1` (configuration not stated), the T/C runs as follows: (endpoint: mean survival time, dose: 25.0 mg/kg/injection, schedule: Q04DX003 (ip), vehicle: saline) 102 % of control; (endpoint: mean survival time, dose: 50.0 mg/kg/injection, schedule: Q04DX003 (ip), vehicle: saline) 102 % of control; under setting [8], 89 % of control.

With `COC(=O)C(NC(C)=O)C(O)Cl` (configuration not stated), the T/C is, setting by setting: under setting [8], 102 % of control; under setting [9], 100 % of control; under setting [10], 98 % of control.

In the case of `CCNC(C)(C)C(SSSC(c1ccc(C(F)(F)F)cc1)C(C)(C)NCC)c1ccc(C(F)(F)F)cc1` (configuration not stated), the T/C under setting [11] is 90 % of control.

As to `COc1cc2c(cc1O)CCCC=C2`, the T/C is, setting by setting: under setting [12], 100 % of control; under setting [6], 96 % of control; under setting [7], 92 % of control.

With `CCOC(=O)C(C)(C)Oc1nn(Cc2ccccc2)c2ccccc12`, the T/C runs as follows: under setting [4], 104 % of control; under setting [5], 102 % of control; under setting [13], 102 % of control.

Consider `CCCCC[CH2][Sn]([CH2]C)([CH2]C)[O]C(C)=O`, for which the T/C is 103 % of control (endpoint: mean survival time, dose: 0.5 mg/kg/injection, schedule: Q04DX003 (ip), vehicle: saline); 95 % of control (endpoint: mean survival time, dose: 0.63 mg/kg/injection, schedule: Q04DX003 (ip), vehicle: saline with Tween-80); 100 % of control (endpoint: mean survival time, dose: 1.0 mg/kg/injection, schedule: Q04DX003 (ip), vehicle: saline); 93 % of control (endpoint: mean survival time, dose: 1.25 mg/kg/injection, schedule: Q04DX003 (ip), vehicle: saline with Tween-80); 91 % of control (endpoint: mean survival time, dose: 2.0 mg/kg/injection, schedule: Q04DX003 (ip), vehicle: saline); 88 % of control (endpoint: mean survival time, dose: 2.5 mg/kg/injection, schedule: Q04DX003 (ip), vehicle: saline with Tween-80).

For the compound `O=C(Nc1ncccn1)Nc1cc([N+](=O)[O-])ccc1F`, the T/C by setting is: (endpoint: mean survival time, dose: 50.0 mg/kg/injection, schedule: Q01DX009 (ip), vehicle: Klucel (hydroxypropylcellulose) (HPC)) 93 % of control; (endpoint: mean survival time, dose: 100.0 mg/kg/injection, schedule: Q01DX009 (ip), vehicle: Klucel (hydroxypropylcellulose) (HPC)) 96 % of control; (endpoint: mean survival time, dose: 200.0 mg/kg/injection, schedule: Q01DX009 (ip), vehicle: Klucel (hydroxypropylcellulose) (HPC)) 98 % of control.

Turning to `C=CC1CN(CCc2cc3ccccc3[nH]2)CCC1CC(=O)OCC` (configuration not stated), the T/C under setting [13] was 97 % of control, the T/C under setting [14] is 101 % of control and the T/C under setting [15] was 94 % of control.

Take `CCCCCCCCCCCCCCCC[n+]1ccc(C(N)=O)cc1`: the T/C reads like this: under setting [1], 105 % of control; under setting [2], 100 % of control; under setting [4], 98 % of control; under setting [5], 97 % of control.

Take `O=C(O)C1OC(C(=O)O)C(C(=O)O)C1C(=O)O` (configuration not stated): the T/C is 100 % of control (endpoint: mean survival time, dose: 75.0 mg/kg/injection, schedule: Q01DX001 (ip), vehicle: other); 100 % of control (endpoint: mean survival time, dose: 150.0 mg/kg/injection, schedule: Q01DX001 (ip), vehicle: other); 95 % of control (endpoint: mean survival time, dose: 300.0 mg/kg/injection, schedule: Q01DX001 (ip), vehicle: other).

Take `Cc1ccc(NC(=O)OCCOc2ccc(-c3ccccc3)cc2)cc1[N+](=O)[O-]`: the T/C is, setting by setting: under setting [12], 98 % of control; under setting [6], 98 % of control; under setting [7], 94 % of control.

With `O=C(CNC(=O)Nc1ccc(F)cc1)N/N=C/c1cc(Br)ccc1O`, the T/C is, setting by setting: under setting [12], 100 % of control; under setting [6], 96 % of control; under setting [7], 88 % of control.

As to `OC1C(O)C(O)C(O)C(O)C1O` (configuration not stated), the T/C by setting is: under setting [11], 104 % of control; (endpoint: mean survival time, dose: 200.0 mg/kg/injection, schedule: Q01DX009 (ip), vehicle: saline) 94 % of control; (endpoint: mean survival time, dose: 400.0 mg/kg/injection, schedule: Q01DX009 (ip), vehicle: saline) 94 % of control.

Take `COC(=O)C1(C(=O)OC)CC1C(=O)c1ccccc1` (configuration not stated): the T/C under setting [13] is 98 % of control, the T/C under setting [14] was 98 % of control and the T/C under setting [15] is 95 % of control.

Take `CCCCCOC(=O)Nc1cccc(O)c1`: the T/C is, setting by setting: under setting [13], 95 % of control; under setting [14], 94 % of control.

Take `Nc1ncnc2c1ncn2C1CC(O)C(O)CO1` (configuration not stated): the T/C is, setting by setting: (endpoint: mean survival time, dose: 100.0 mg/kg/injection, schedule: Q01DX001 (ip), vehicle: saline) 103 % of control; (endpoint: mean survival time, dose: 200.0 mg/kg/injection, schedule: Q01DX001 (ip), vehicle: saline) 105 % of control; (endpoint: mean survival time, dose: 400.0 mg/kg/injection, schedule: Q01DX001 (ip), vehicle: saline) 105 % of control.

As to `CCCCCCCCCCCCOP(OCCCCCCCCCCCC)OCCCCCCCCCCCC`, the T/C (endpoint: mean survival time, dose: 100.0 mg/kg/injection, schedule: Q04DX003 (ip), vehicle: alcohol) is 102 % of control; the T/C (endpoint: mean survival time, dose: 200.0 mg/kg/injection, schedule: Q04DX003 (ip), vehicle: alcohol) was 96 % of control; the T/C (endpoint: mean survival time, dose: 400.0 mg/kg/injection, schedule: Q04DX003 (ip), vehicle: alcohol) was 98 % of control.

As for `Cc1cccnc1F`, the T/C by setting is: under setting [1], 95 % of control; under setting [3], 97 % of control; under setting [12], 100 % of control; under setting [13], 93 % of control; under setting [14], 96 % of control; under setting [15], 96 % of control.

For the compound `O=S(=O)(O)O.[NH-]C(c1ccccc1)C([NH-])c1ccccc1.[Pt+2]` (configuration not stated), the T/C is 192 % of control under setting [2]; 234 % of control and 197 % of control under setting [4].

As for `CN1C2CCC1C(Br)C(=O)C2` (configuration not stated), the T/C (endpoint: median survival time, dose: 25.0 mg/kg/injection, schedule: Q01DX009 (ip), vehicle: saline) is 102 % of control; the T/C (endpoint: median survival time, dose: 50.0 mg/kg/injection, schedule: Q01DX009 (ip), vehicle: saline) was 105 % of control; the T/C (endpoint: median survival time, dose: 100.0 mg/kg/injection, schedule: Q01DX009 (ip), vehicle: saline) was 105 % of control; the T/C (endpoint: median survival time, dose: 200.0 mg/kg/injection, schedule: Q01DX009 (ip), vehicle: saline) is 101 % of control.

For the compound `O=C1OCSc2ccccc21`, the T/C is, setting by setting: (endpoint: mean survival time, dose: 25.0 mg/kg/injection, schedule: Q01DX009 (ip), vehicle: saline sonified) 108 % of control; (endpoint: mean survival time, dose: 50.0 mg/kg/injection, schedule: Q01DX009 (ip), vehicle: saline sonified) 102 % of control; (endpoint: mean survival time, dose: 100.0 mg/kg/injection, schedule: Q01DX009 (ip), vehicle: saline sonified) 102 % of control; under setting [13], 100 % of control; under setting [14], 101 % of control; under setting [15], 97 % of control.

Turning to `O=C(Cc1ccccc1)C(O)c1ccccc1` (configuration not stated), the T/C is, setting by setting: (endpoint: mean survival time, dose: 100.0 mg/kg/injection, schedule: Q01DX001 (ip), vehicle: saline with Tween-80) 86 % of control; (endpoint: mean survival time, dose: 200.0 mg/kg/injection, schedule: Q01DX001 (ip), vehicle: saline with Tween-80) 92 % of control; (endpoint: mean survival time, dose: 400.0 mg/kg/injection, schedule: Q01DX001 (ip), vehicle: saline with Tween-80) 87 % of control.

In the case of `C1=CC2C3c4ccccc4C(C2C1)[n+]1ccccc13` (configuration not stated), the T/C is 95 % of control (endpoint: mean survival time, dose: 12.5 mg/kg/injection, schedule: Q04DX003 (ip), vehicle: Klucel (hydroxypropylcellulose) (HPC)); 97 % of control (endpoint: mean survival time, dose: 25.0 mg/kg/injection, schedule: Q04DX003 (ip), vehicle: Klucel (hydroxypropylcellulose) (HPC)); 93 % of control (endpoint: mean survival time, dose: 50.0 mg/kg/injection, schedule: Q04DX003 (ip), vehicle: Klucel (hydroxypropylcellulose) (HPC)).

Take `CN(C)CCOS(C)(=O)=O`: the T/C was 100 % of control under setting [8], 98 % of control under setting [9] and 100 % of control under setting [10].
